Source: patent US20240148745A1, “COMPOUNDS FOR USE IN PROGRESSIVE MULTIPLE SCLEROSIS” (FONDAZIONE CENTRO SAN RAFFAELE, priority 2021, published 2024)

How the values were obtained:
[1] = tested on: murine cortical neurons (14 DIV); assay: NMDA-mediated neuroprotective assay (CCK8 viability); type: cell-based, mouse; settings: 1 μM, 3 h pre-treatment, NMDA 8 μM 24 h, p<0.05
Procedure: To assess neuroprotective activity of 160 selected non-toxic compounds on primary murine cortical neurons, obtained as described in the previous paragraph, ([…]), cultures were pre-treated with 1 μM compounds for either 3 or 24 hours, followed by 24 hours chronic stimulation with NMDA (8 μM) to induce neuronal damage. Each test plate included: a negative control (untreated), vehicle-treated control (0.02% vol/vol DMSO), a positive neurotoxic control—staurosporine 0.1 μM, a stressor—NMDA 8 μM, a positive neuroprotective control—NAC 300 μM, and a combination of stressor +neuroprotective molecule (NMDA+NAC). Cell viability was measured with Cell Counting Kit-8 assay compared to NMDA-treated control.
The potential neuroprotective activity of 160 selected non-toxic compounds was evaluated on murine cortical neurons (14 DIV) with either 3 h (FIG. 13) or 24 h compounds pre-treatment (FIG. 14). In assay with 3 h pre-treatment, 17 compounds were identified as potential NMDA-neuroprotective hits (marked with black asterisk in FIG. 13, stat. significant at p<0.05, Kruskal-Wallis test with post-hoc two-stage linear step-up procedure of Benjamini, Krieger and Yekutieli multiple comparison correction).

[2] = tested on: mouse cortical neurons; assay: Morphological integrity evaluation, NMDA 8 μM (MAP2 neurite length and branching); type: cell-based; settings: 3 h pre-treatment, NMDA 8 μM 24 h; Z>0.5 criteria
Procedure: Apart of viability/metabolic readout in NMDA-mediated neurotoxicity assay, a neuronal structural integrity was evaluated by MAP2 staining. Mouse cortical neurons (14 DIV) cultured in MW96 plates were fixed with 4% paraformaldehyde (PFA). Fixed cells were incubated with blocking solution (PBS 1×, donkey serum 5%, Triton 0.1%) for 1-hour, primary antibody (rabbit α-MAP2, 1:250, Millipore) was applied in the same solution overnight at +4° C. […] Nuclei were stained with 4′-6-diamidino-2-phenylindole (DAPI, Roche). Microscopy was performed using ArrayScan™XTI (ThermoFisher) imaging platform. 15 images per well were acquired and analyzed by CellProfiler. Total neurite length and the total number of non-trunk branches were analyzed. Total neurite length and the total number of branching were evaluated from 15 images/well, each compound or control was tested in triplicates. The total neurite length and total number of branches were converted to a standardized Z-score using formula: Xij=((Xij−μ)/σ), where xij is the raw measurement of the compound located in well (i, j), and μ and σ are, respectively, the mean and the standard deviation of all measurements of the plate.^31
The morphological integrity of mouse cortical neurons upon chronic 24 h NMDA (8 μM) exposure with compounds pre-treatment (3 h) in preventive regimen was evaluated. Control (basal), DMSO, N-acetylcysteine (NAC) served as positive controls, while staurosporine and NMDA were negative controls.

[3] = tested on: rat oligodendrocyte progenitor CG4 line; assay: Differentiation assay on rat oligodendrocyte progenitor CG4 line (HCS, mCherry+); type: cell-based; settings: 1 μM; for CG4 differentiation compared with 9cis-RA positive control: secondary screen of 49 selected compounds, 5 days
Text: Primary validation on CG4 line toxicity and differentiation. An innovative OPC line was developed for fast and reliable high content screening (HCS) of small compounds inducing oligodendrocyte differentiation. The line was genetically engineered by lentiviral transduction of rat CG4 cells (PubMed=1613821; DOI=10.1002/jnr.490310125; Louis J. C., Magal E., Muir D., Manthorpe M., Varon S.; CG-4, a new bipotential glial cell line from rat brain, is capable of differentiating in vitro into either mature oligodendrocytes or type-2 astrocytes. J. Neurosci. Res. 31:193-204(1992) to express mCherry fluorescent reporter (Evercooren, Anne & Avellana-Adalid, V. & Vitry, Sandrine & Nait-Oumesmar, Brahim & Lachapelle, Francois. (1997). Expansion of Oligodendrocyte Progenitors for Myelin Repair. 10.1007/978-1-4615-5949-8_21) in mature oligodendrocytes only, and EGFP at all stage of the oligodendroglial lineage: both the generation of mature oligodendrocytes (wmNl-mCherry) and the morphological changes associated with differentiation (CMV-EGFP) can be therefore monitored in a single assay. mCherry expression occurred only in O4+/GalC+ differentiated oligodendrocytes and GFP was ubiquitously expressed at all developmental stages. The line so obtained was validated using compounds with well-established effects on oligodendrocyte differentiation (cAMP and T3). Cell-based assay was standardized on the HCS platform (ArrayScanXTI, Brain and Spine Institute (Paris), validating the pro-differentiation effects of clemastine^27 and 9cis-retinoic acid.^28 For HCS validation of 274 compounds identified through in silico screen, double-fluo CG4 line cells were plated in 96 well-plates, 6500 cells/cm^2 and left for 24 h in proliferation. The other day, compounds were added (1 μM) for next 5 days of differentiation, with ⅔ medium changed after 3 days. 9-cis Retinoic Acid (9cis-RA; […]) served as a positive control, negative controls were basal (N1) medium and vehicle (basal+0.1% DMSO). Each compound was tested in triplicate and were imaged with ArrayScanXTI system (35 fields/well) after 5 days of differentiation.
FIG. 4 provides a schematic representation of High Content Screening (HCS) validation of the 274 compounds identified through in silico screening using CG4 line. […] In addition, the whole short list of 160 non-toxic compounds were screened using the CG4 high content phenotypic assay to further confirm the data from primary screening and to potentially select additional compounds with pro-myelinating activities. From this screening of the short list, 49 hit compounds were identified that increase differentiation either of CG4 cells or primary OPCs (FIG. 6).

[4] = tested on: rat primary OPC cultures; assay: Differentiation of rat primary OPC into MBP+ OLs; type: cell-based; settings: 96 h, 4 days of differentiation, read-out: MBP+ differentiation (MBP+/SOX10+ OLs plus compounds / plus basal medium)
Procedure: Secondary validation on primary rat OPC differentiation. Re-validation of the best performing compounds promoting OPC differentiation (fold change >1.5) was performed on primary rat OPC cultures in 96 well-plate run in triplicates by triple immunolabeling for CNPase, MBP and SOX10 as a readout. Compounds at […] were added for 4 days of differentiation and then cell cultures were imaged with ArrayScanXTI platform, number of MBP+OLs were quantified by semi-automated software. Basal medium served as a negative control, 9 cis-RA ([…]) was a positive control.
Re-validation of the 49 compounds selected from the short list (160 compounds) using rat primary OPC cultures (compounds tested in triplicates in 3 independent experiments. The secondary validation screen of these compounds performed on rat primary OPC cultures selected 17 best lead compounds with a pro-differentiation activity (MBP+/SOX10+OLs plus compounds/MBP+SOX10+ plus basal medium fold increase) induced a strong differentiation into MBP+OLs (fold increase >1.6). Results are shown in FIG. 7.

CN1[C@@H]2CC[C@H]1C[C@@H](OC(=O)[C@H](CO)c1ccccc1)C2 [Hyoscyamine]
neuroprotection of viability/metabolic activity against NMDA [1]: hit compounds
preservation of neurite length and network integrity (branching) [2]: preserved both neurite length and the network integrity (branching)

N[C@@H](CO)C(=O)O [L-Serine]
neuroprotection of viability/metabolic activity against NMDA [1]: hit compounds

CC(C)(C)c1cc(NC(=O)Nc2ccc(-c3cn4c(n3)sc3cc(OCCN5CCOCC5)ccc34)cc2)no1 [Quizartinib]
CG4 differentiation compared with 9cis-RA positive control [3]: promoting differentiation significantly higher than 9cis-RA positive control
fold induction at 1 µM [4]: > 1.6

Cc1[nH]c(/C=C2\C(=O)Nc3ccc(F)cc32)c(C)c1C(=O)NC[C@H](O)CN1CCOCC1 [SU14813]
fold induction at 1 µM [4]: > 1.6

CC(=O)Nc1cccc2c1c(Sc1ccc(Cl)cc1)c(C)n2CC(=O)O [AZD1981]
neuroprotection of viability/metabolic activity against NMDA [1]: hit compounds

COCCNCc1ccc(-c2cc3nccc(Oc4ccc(NC(=S)NC(=O)Cc5ccc(F)cc5)cc4F)c3s2)nc1 [MGCD-265]
fold induction at 1 µM [4]: > 1.6

CNC(=O)c1cccc2cc(Oc3ccnc4cc(OCC5(N)CC5)c(OC)cc34)ccc12 [LUCITANIB]
CG4 differentiation compared with 9cis-RA positive control [3]: promoting differentiation significantly higher than 9cis-RA positive control
fold induction at 1 µM [4]: > 1.6

Cn1c(=O)c(Oc2ccc(F)cc2F)cc2cnc(NC(CCO)CCO)nc21 [Pamapimod]
neuroprotection of viability/metabolic activity against NMDA [1]: hit compounds

FC(F)(F)c1ccc(CNc2ccc(Cc3c[nH]c4ncc(Cl)cc34)cn2)cn1 [PLX-3397]
CG4 differentiation compared with 9cis-RA positive control [3]: promoting differentiation significantly higher than 9cis-RA positive control
fold induction at 1 µM [4]: > 1.6

CCOC(=O)c1cnc2c(cnn2CC)c1NN=C(C)C [Etazolate]
fold induction at 1 µM [4]: > 1.6

Nc1ncnc2nc[nH]c12 [Adenine]
neuroprotection of viability/metabolic activity against NMDA [1]: hit compounds
preservation of neurite length and network integrity (branching) [2]: preserved both neurite length and the network integrity (branching)

O=C(Nc1ccccc1Br)N[C@@H]1CCN(c2ccc(C(F)(F)F)cn2)C1 [SB-705498]
neuroprotection of viability/metabolic activity against NMDA [1]: hit compounds

CC1(C)O[C@@H]2C[C@H]3[C@@H]4C[C@H](F)C5=CC(=O)C=C[C@]5(C)[C@@]4(F)[C@@H](O)C[C@]3(C)[C@]2(C(=O)CO)O1 [Fluocinolone acetonide, Fluocinolone Acetonide]
neuroprotection of viability/metabolic activity against NMDA [1]: hit compounds

COc1cc(OC)nc(O[C@H](C(=O)O)C(OC)(c2ccccc2)c2ccccc2)n1
CG4 differentiation compared with 9cis-RA positive control [3]: promoting differentiation significantly higher than 9cis-RA positive control
fold induction at 1 µM [4]: > 1.6

NC(=O)[C@@H]1CC[C@H](c2ccc(OCc3ccccc3F)cc2)N1 [Raxatrigine]
neuroprotection of viability/metabolic activity against NMDA [1]: hit compounds
preservation of neurite length and network integrity (branching) [2]: preserved both neurite length and the network integrity (branching)

CN1[C@@H]2CC[C@H]1C[C@@H](OC(c1ccccc1)c1ccccc1)C2 [BENZATROPINE]
CG4 differentiation, fold increase relative to control [3]: over 1.5 fold
CG4 differentiation compared with 9cis-RA positive control [3]: promoting differentiation significantly higher than 9cis-RA positive control
fold induction at 1 µM [4]: > 1.6
